Reference: patent US9394297B2, “Amides as pim inhibitors” (AMGEN INC., priority 2012, dated 2016)
Where two headings read alike, the source gives them in different places.

What was measured:
Pim-1 = Pim-1 (Homo sapiens (Human), UniProt P11309); test: Pim-Mn enzyme assay (HTRF, 384-well), Pim-1; type: biochemical; details: read-out: Pim-1-Mn IC50 IP
Pim-2 = Pim-2 (Homo sapiens (Human), UniProt Q9P1W9); test: Pim-Mn enzyme assay (HTRF, 384-well), Pim-2; type: biochemical; details: read-out: Pim-2-Mn IC50 IP
KMS-12-BM cell lines = test: KMS12 #2 flow cytometry assay (phospho-BAD Ser112); type: cell-based; details: Homo sapiens, 110 min; KMS-12-BM cells, pBAD Ser112 by flow cytometry, 110 min with compound; read-out: KMS-12-Flow IC50 IP
[1] = Pim-1 enzyme 5 pM, ATP 1.5 μM, BAD (S112) 0.5 μM, HTRF, 22-point curve
[2] = Pim-2 enzyme 0.5 pM, ATP 1.5 μM, BAD (S112) 0.5 μM, HTRF, 22-point curve

Chain of Pim-1 (P11309 whole entry): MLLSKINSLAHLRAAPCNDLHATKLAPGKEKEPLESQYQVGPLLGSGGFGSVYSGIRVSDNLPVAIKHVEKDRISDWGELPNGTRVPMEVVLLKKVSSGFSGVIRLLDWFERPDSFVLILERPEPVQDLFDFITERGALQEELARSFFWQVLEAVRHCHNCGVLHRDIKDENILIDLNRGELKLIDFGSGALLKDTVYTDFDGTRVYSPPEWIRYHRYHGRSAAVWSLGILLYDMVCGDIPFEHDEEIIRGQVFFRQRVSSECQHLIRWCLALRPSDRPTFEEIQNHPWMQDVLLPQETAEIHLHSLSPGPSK
Chain of Pim-2 (Q9P1W9 whole entry): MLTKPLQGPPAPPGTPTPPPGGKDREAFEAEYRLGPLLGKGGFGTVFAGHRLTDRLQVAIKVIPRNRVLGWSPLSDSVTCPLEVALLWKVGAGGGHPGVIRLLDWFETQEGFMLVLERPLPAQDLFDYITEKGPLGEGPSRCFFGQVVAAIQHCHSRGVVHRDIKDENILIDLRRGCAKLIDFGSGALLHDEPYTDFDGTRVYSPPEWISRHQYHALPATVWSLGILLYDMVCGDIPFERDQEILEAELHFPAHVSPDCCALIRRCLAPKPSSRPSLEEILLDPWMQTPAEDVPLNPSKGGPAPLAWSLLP

Row | IC50 (Pim-1; [1]) [nM] | IC50 (Pim-2; [2]) [nM] | IC50 (KMS-12-BM cell lines) [nM] | Structure (SMILES) | IC50 (Pim-1) [nM] | IC50 (Pim-2) [nM]
1 | 5.4 | 7.94 | 3390 | Cc1nc2cccc(-c3cc4c([nH]3)C(COCc3ccccc3)NC4=O)c2nc1NC(C)(C)C (racemic) [Example 468, (6R)-6-((benzyloxy)methyl)-2-(3-(tert-butylamino)-2-methyl-5-quinoxalinyl)-5,6-dihydropyrrolo[3,4-b]pyrrol-4(1H)-one and (6S)-6-((benzyloxy)methyl)-2-(3-(tert-butylamino)-2-methyl-5-quinoxalinyl)-5,6-dihydropyrrolo[3,4-b]pyrrol-4(1H)-one] | – | –
2 | 1.63 | 1.45 | 590 | C#Cc1nc2cccc(-c3cc4c([nH]3)CCNC4=O)c2nc1NC(C)(C)C [Example 307, 2-(3-(tert-butylamino)-2-ethynylquinoxalin-5-yl)-6,7-dihydro-1H-pyrrolo[3,2-c]pyridin-4(5H)-one] | – | –
3 | 4 | 3 | 344 | C[C@H](O)c1nc2cccc(-c3cc4c([nH]3)CCNC4=O)c2nc1NC(C)(C)C [Example 310, (S)-2-(3-(tert-butylamino)-2-(1-hydroxyethyl)quinoxalin-5-yl)-6,7-dihydro-1H-pyrrolo[3,2-c]pyridin-4(5H)-one] | – | –
4 | 1.5 | 2.6 | 659 | CC(C)(C)Nc1nc2c(-c3cc4c([nH]3)CCNC4=O)cccc2c(=O)n1-c1cccnc1 [Example 404, 2-(tert-butylamino)-8-(4-oxo-4,5,6,7-tetrahydro-1H-pyrrolo[3,2-c]pyridin-2-yl)-3-(3-pyridinyl)-4(3H)-quinazolinone] | – | –
5 | 0.192 | 0.177 | 79.4 | Cc1nc2cccc(-c3cc4c([nH]3)[C@@H](CO)NC4=O)c2nc1NC1CC1 [Example 366, (S)-2-(3-(cyclopropylamino)-2-methylquinoxalin-5-yl)-6-(hydroxymethyl)-5,6-dihydropyrrolo[3,4-b]pyrrol-4(1H)-one] | – | –
6 | 2.82 | 1.32 | 145 | Cc1nc2cccc(-c3cc4c([nH]3)CCNC4=O)c2nc1NCC(F)(F)F [Example 336, 2-(2-methyl-3-((2,2,2-trifluoroethyl)amino)-5-quinoxalinyl)-1,5,6,7-tetrahydro-4H-pyrrolo[3,2-c]pyridin-4-one] | – | –
7 | 0.7 | 1.3 | > 40000 | Cc1nc2cccc(-c3cc4c([nH]3)CCNC4=O)c2nc1N[C@H]1C[C@@H](NCCS(C)(=O)=O)C1 [Example 441, 2-(2-Methyl-3-((cis-3-((2-(methylsulfonyl)ethyl)amino)cyclobutyl)amino)quinoxalin-5-yl)-6,7-dihydro-1H-pyrrolo[3,2-c]pyridin-4(5H)-one] | – | –
8 | 67.3 | 61.9 | 5060 | Cc1nc2cccc(-c3cc4c([nH]3)CCNC4=O)c2nc1-c1ccoc1 [Example 431, 2-(3-(Furan-3-yl)-2-methylquinoxalin-5-yl)-6,7-dihydro-1H-pyrrolo[3,2-c]pyridin-4(5H)-one] | – | –
9 | 0.184 | 0.162 | 11.5 | Cc1nc2ccc(F)c(-c3cc4c([nH]3)CCNC4=O)c2nc1NC1(C)CC1 [Example 369, 2-(6-fluoro-2-methyl-3-((1-methylcyclopropyl)amino)quinoxalin-5-yl)-6,7-dihydro-1H-pyrrolo[3,2-c]pyridin-4(5H)-one 2,2,2-trifluoroacetate] | – | –
10 | 3.81 | 3.68 | 429 | Cc1nc2cccc(-c3cc4c([nH]3)[C@H](CO)NC4=O)c2nc1NC1CC1 [Example 367, (R)-2-(3-(cyclopropylamino)-2-methylquinoxalin-5-yl)-6-(hydroxymethyl)-5,6-dihydropyrrolo[3,4-b]pyrrol-4(1H)-one] | – | –
11 | 0.1 | 0.24 | 47 | C[C@H]1NC(=O)c2cc(-c3cccc4c(=O)[nH]c(NC(C)(C)C)nc34)[nH]c21 [Example 408, 2-(tert-butylamino)-8-((6R)-6-methyl-4-oxo-1,4,5,6-tetrahydropyrrolo[3,4-b]pyrrol-2-yl)-4(3H)-quinazolinone] | – | –
12 | 3.52 | 7.79 | 3150 | Cc1nc2cccc(-c3cc(C(N)=O)c(C4CC4)[nH]3)c2nc1NC(C)(C)C [Example 418, 5-(3-(tert-butylamino)-2-methylquinoxalin-5-yl)-2-cyclopropyl-1H-pyrrole-3-carboxamide] | – | –
13 | 392 | 521 | > 40000 | Cc1nc2cccc(-c3cc4c([nH]3)CCNC4=O)c2nc1Cl [Example 425, 2-(3-Chloro-2-methylquinoxalin-5-yl)-6,7-dihydro-1H-pyrrolo[3,2-c]pyridin-4(5H)-one] | – | –
14 | 23.3 | 82 | > 40000 | Cc1nc2cccc(-c3cc4c([nH]3)CCNC4=O)c2nc1-c1ccccc1Cl [Example 427, 2-(3-(2-Chlorophenyl)-2-methylquinoxalin-5-yl)-6,7-dihydro-1H-pyrrolo[3,2-c]pyridin-4(5H)-one] | – | –
15 | 2.33 | 2.78 | 1770 | CC(C)(C)Nc1nc2c(-c3cc4c([nH]3)CCNC4=O)cccc2nc1F [Example 343, 2-(3-(tert-butylamino)-2-fluoro-5-quinoxalinyl)-1,5,6,7-tetrahydro-4H-pyrrolo[3,2-c]pyridin-4-one] | – | –
16 | 36 | 75 | 21500 | Cc1nc2cccc(-c3cc4c([nH]3)C(C)N(C(=O)OC(C)(C)C)C4=O)c2nc1NC(C)(C)C (stereo not drawn) [Example 316, tert-butyl 2-(3-(tert-butylamino)-2-methylquinoxalin-5-yl)-6-methyl-4-oxo-4,6-dihydropyrrolo[3,4-b]pyrrole-5(1H)-carboxylate] | – | –
17 | 1.73 | 1.82 | 251 | Cc1nc2cccc(-c3cc4c([nH]3)[C@H](CO)NC4=O)c2nc1NC1(C)CC1 [Example 362, (R)-6-(hydroxymethyl)-2-(2-methyl-3-((1-methylcyclopropyl)amino)quinoxalin-5-yl)-5,6-dihydropyrrolo[3,4-b]pyrrol-4 (1H)-one] | – | –

Row | Structure (SMILES) | IC50 (Pim-1; [1]) [nM] | IC50 (Pim-2; [2]) [nM] | IC50 (KMS-12-BM cell lines) [nM] | IC50 (Pim-1) [nM] | IC50 (Pim-2) [nM]
18 | Cc1nc2cccc(-c3cc4c([nH]3)CNC4=O)c2nc1NC1(C)CC1 [Example 357, 2-(2-Methyl-3-((1-methylcyclopropyl)amino)quinoxalin-5-yl)-5,6-dihydropyrrolo[3,4-b]pyrrol-4(1H)-one] | – | 0.57 | 15 | 0.463 | –
19 | Cc1nc2ccc(F)c(-c3cc4c([nH]3)C3(CC3)NC4=O)c2nc1NC1(C)CC1 [Example 378, 2′-(6-fluoro-2-methyl-3-((1-methylcyclopropyl)amino)quinoxalin-5-yl)-1′H-spiro[cyclopropane-1,6′-pyrrolo[3,4-b]pyrrol]-4′(5′H)-one] | – | – | 16.1 | 0.0295 | 0.0354
20 | Cc1nc2cccc(-c3cc4c([nH]3)[C@@H](C)NC4=O)c2nc1NC(C)(C)CO [Example 302, (6R)-2-(3-((2-hydroxy-1,1-dimethylethyl)amino)-2-methyl-5-quinoxalinyl)-6-methyl-5,6-dihydropyrrolo[3,4-b]pyrrol-4(1H)-one] | – | – | 71.2 | 1.84 | 1.45
21 | Cc1nc2cccc(-c3cc4c([nH]3)C(COCc3ccccc3)NC4=O)c2nc1NC1(C)CC1 (stereo not drawn) [Example 355, 6-((benzyloxy)methyl)-2-(2-methyl-3-((1-methylcyclopropyl)amino)quinoxalin-5-yl)-5,6-dihydropyrrolo[3,4-b]pyrrol-4 (1H)-one] | – | 1.86 | 2430 | 1.79 | –
